Where “and” joins values, the source holds several entries; their conditions need not be identical. Identical values can stand only once.
Legend:
CAKI-1 = assay: NCI-60 DTP Human Tumor Cell Line Screen; format: cell-based; settings: CAKI-1, Renal Cancer, 48 h
MDA-MB-468 = assay: NCI-60 DTP Human Tumor Cell Line Screen; format: cell-based; settings: MDA-MB-468, Breast Cancer, 48 h
SK-MEL-28 = assay: NCI-60 DTP Human Tumor Cell Line Screen; format: cell-based; settings: SK-MEL-28, Melanoma, 48 h
RPMI-8226 = assay: NCI-60 DTP Human Tumor Cell Line Screen; format: cell-based; settings: RPMI-8226, Leukemia, 48 h
SN12C = assay: NCI-60 DTP Human Tumor Cell Line Screen; format: cell-based; settings: Renal Cancer, 48 h
M14 = assay: NCI-60 DTP Human Tumor Cell Line Screen; format: cell-based; settings: M14, Melanoma, 48 h
NCI-H226 = assay: NCI-60 DTP Human Tumor Cell Line Screen; format: cell-based; settings: NCI-H226, Non-Small Cell Lung Cancer, 48 h
NCI-H23 = assay: NCI-60 DTP Human Tumor Cell Line Screen; format: cell-based; settings: NCI-H23, Non-Small Cell Lung Cancer, 48 h
RXF 393 = assay: NCI-60 DTP Human Tumor Cell Line Screen; format: cell-based; settings: RXF 393, Renal Cancer, 48 h
[1] = In vivo tolerance study, I.V. dosing (tail vein); set-up: species or system Balb/c mice
Protocol: Ten Balb/c mice were split into three groups: untreated, vehicle and clodronate prodrug. Untreated mice received no treatment or injection. The vehicle was 100 μL 10% cremaphor in ddH20 injected into the tale vein. 100 μL of 3 mM Clodronate Prodrug dissolved in 10% cremaphor in ddH20. (100 μL of 3 mM is about 14 mg/kg).

P. falciparum (NF54) = assay: Antimalarial [3H]-hypoxanthine incorporation assay; format: cell-based, Plasmodium falciparum; settings: P. falciparum (NF54); read-out: IC50
Protocol: Plasmodium falciparum culture. NF54 P. falciparum parasites were maintained in O+ positive erythrocytes (obtained weekly from a rotating pool of screened healthy donors) in complete medium containing RPMI (Sigma), 25 mM N-2-hydroxyethylpiperazine-N′-2-ethanesulfonic acid (HEPES; Sigma), 27 mM sodium bicarbonate (Sigma) and 10% heat-inactivated male O+ serum in non-vented flasks. Hematocrit was maintained at 2.4%. Flasks were gassed with a mixture of 3% oxygen, 4% carbon dioxide, 93% nitrogen. Parasitemia was maintained at 0.1-5% by changing medium and erythrocytes two to three times a week.
Antimalarial activity was measured using a [^3H]-hypoxanthine incorporation assay as described previously (Desjardins et al., Antimicrob. Agents Chemother., vol. 16, p. 710, 1979; Milhous et al., Antimicrob. Agents Chemother., vol. 27, np. 525, 1985). […] For surveys, each concentration was assayed in triplicate while in expansions, each concentration was assayed in quadruplicate. To each well, 0.64 μCi of [^3H]-hypoxanthine (10-30 Ci/mmol; Perkin Elmer) was added and the plate was incubated for an additional 20 to 24 h. Samples from each well were harvested on filter paper and tritium counts were measured on the Beckmann Coulter LS6500 scintillation counter. […] Values considered as outliers according to Chauvenet's criterion were discarded and dropped from analysis. One survey and at least one expansion was performed for each compound.

UO-31 = assay: NCI-60 DTP Human Tumor Cell Line Screen; format: cell-based; settings: UO-31, Renal Cancer, 48 h
IGROV1 = assay: NCI-60 DTP Human Tumor Cell Line Screen; format: cell-based; settings: IGROV1, Ovarian Cancer, 48 h
UACC-62 = assay: NCI-60 DTP Human Tumor Cell Line Screen; format: cell-based; settings: UACC-62, Melanoma, 48 h
KM12 = assay: NCI-60 DTP Human Tumor Cell Line Screen; format: cell-based; settings: KM12, Colon Cancer, 48 h
HCT-15 = assay: NCI-60 DTP Human Tumor Cell Line Screen; format: cell-based; settings: HCT-15, Colon Cancer, 48 h

**Q.** For CN(CCCCCl)P(=O)(OCc1ccc([N+](=O)[O-])cc1)C(Cl)(Cl)P(=O)(OCc1ccc([N+](=O)[O-])cc1)N(C)CCCCCl (centres unmarked) [compound 14], which Log10GI50 (CAKI-1) is on record?
**A.** −5.54

**Q.** What about the Log10LC50 (CAKI-1) of the same compound?
**A.** >−4.00

**Q.** What about the Log10TGI (CAKI-1) of the same compound?
**A.** >−4.00

**Q.** What about the Log10GI50 (MDA-MB-468) of the same compound?
**A.** −5.58

**Q.** And the Log10LC50 (MDA-MB-468)?
**A.** >−4.00

**Q.** What about the Log10TGI (MDA-MB-468) of the same compound?
**A.** −5.07

**Q.** And the Log10GI50 (SK-MEL-28)?
**A.** −5.42

**Q.** What about the Log10LC50 (SK-MEL-28) of the same compound?
**A.** >−4.00

**Q.** And the Log10TGI (SK-MEL-28)?
**A.** >−4.00

**Q.** What about the Log10GI50 (RPMI-8226) of the same compound?
**A.** −5.57

**Q.** What about the Log10LC50 (RPMI-8226) of the same compound?
**A.** >−4.00

**Q.** And the Log10TGI (RPMI-8226)?
**A.** >−4.00

**Q.** What about the Log10GI50 (SN12C) of the same compound?
**A.** −5.42

**Q.** What about the Log10LC50 (SN12C) of the same compound?
**A.** >−4.00

**Q.** And the Log10TGI (SN12C)?
**A.** >−4.00

**Q.** And the Log10GI50 (M14)?
**A.** −5.40

**Q.** What about the Log10LC50 (M14) of the same compound?
**A.** >−4.00

**Q.** What about the Log10TGI (M14) of the same compound?
**A.** >−4.00

**Q.** What about the Log10GI50 (NCI-H226) of the same compound?
**A.** −5.52

**Q.** What about the Log10LC50 (NCI-H226) of the same compound?
**A.** >−4.00

**Q.** And the Log10TGI (NCI-H226)?
**A.** >−4.00

**Q.** And the Log10GI50 (NCI-H23)?
**A.** −5.58

**Q.** What about the Log10LC50 (NCI-H23) of the same compound?
**A.** >−4.00

**Q.** And the Log10TGI (NCI-H23)?
**A.** >−4.00

**Q.** And the Log10GI50 (RXF 393)?
**A.** −5.50

**Q.** And the Log10LC50 (RXF 393)?
**A.** >−4.00

**Q.** What about the Log10TGI (RXF 393) of the same compound?
**A.** −4.38

**Q.** What about the Mouse weight ([1]; Mar. 21, 2011, i.v. 100 μL of 3 mM (about 14 mg/kg), individual mice, listed as cloprodrug) of the same compound?
**A.** 15.9 g and 14.5 g and 15.6 g

**Q.** What about the Δ in weight ([1]; Mar. 21 to Mar. 28, 2011, i.v. about 14 mg/kg, individual mice, listed as cloprodrug) of the same compound?
**A.** 2.2 g and 2.7 g and 0.6 g

**Q.** And the Mouse weight ([1]; Mar. 23, 2011, i.v. about 14 mg/kg, individual mice, listed as cloprodrug)?
**A.** 17.6 g and 16.4 g and 16.2 g

**Q.** And the Mouse weight ([1]; Mar. 25, 2011, i.v. about 14 mg/kg, individual mice, listed as cloprodrug)?
**A.** 18.2 g and 16.8 g and 16.4 g

**Q.** And the Mouse weight ([1]; Mar. 28, 2011, i.v. about 14 mg/kg, individual mice, listed as cloprodrug)?
**A.** 18.1 g and 17.2 g and 16.2 g

**Q.** What about the behavior ([1]; i.v. about 14 mg/kg) of the same compound?
**A.** no unusual behavior observed

**Q.** What about the “difference in weight between the three treatment groups” value ([1]; i.v. about 14 mg/kg vs vehicle and untreated) of the same compound?
**A.** no significant difference in weight

**Q.** And the IC50 (P. falciparum (NF54))?
**A.** 980 ± 210 nM

**Q.** And the Log10GI50 (UO-31)?
**A.** −5.76

**Q.** What about the Log10LC50 (UO-31) of the same compound?
**A.** >−4.00

**Q.** And the Log10TGI (UO-31)?
**A.** >−4.00

**Q.** What about the Log10GI50 (IGROV1) of the same compound?
**A.** −5.39

**Q.** What about the Log10LC50 (IGROV1) of the same compound?
**A.** >−4.00

**Q.** And the Log10TGI (IGROV1)?
**A.** >−4.00

**Q.** What about the Log10GI50 (UACC-62) of the same compound?
**A.** −5.70

**Q.** And the Log10LC50 (UACC-62)?
**A.** −4.11

**Q.** And the Log10TGI (UACC-62)?
**A.** −5.30

**Q.** What about the Log10GI50 (KM12) of the same compound?
**A.** −5.46

**Q.** What about the Log10LC50 (KM12) of the same compound?
**A.** >−4.00

**Q.** What about the Log10TGI (KM12) of the same compound?
**A.** >−4.00

**Q.** And the Log10GI50 (HCT-15)?
**A.** −5.41

**Q.** And the Log10LC50 (HCT-15)?
**A.** >−4.00

**Q.** And the Log10TGI (HCT-15)?
**A.** >−4.00

Reference: patent US8772268B2, “Bisphosphonamidate prodrugs and uses thereof” (The Johns Hopkins University, priority 2010, dated 2014)
